Values joined by “and” are separate entries in the source; they are usually repeats but may differ in a detail not shown here. Identical values can stand only once.
Experiments:
human neutrophils = assay: Neutrophil stimulation by LPS: CR1/CR3 upregulation, flow cytometry; format: cell-based; settings: stoichiometric calculation
Experimental: Venous blood was drawn from healthy volunteer donors into acid citrate dextrose anticoagulant and immediately placed on ice. Five parts blood were mixed with 1 part cold Macrodex, and allowed to settle for 1.5 - 2 hours at 4°C. Leukocyte-rich plasma was washed 1X in cold HBSS, then resuspended in HBSS and layered over Ficoll-Paque. If significant erythrocyte contamination was present, the granulocyte pellet was subjected to hypotonic lysis. The cells were washed 2X in HBSS and resuspended in HBSS + 2% autologous plasma to give a final granulocyte concentration of 1 X 10^6/ml in the incubation mixture.
Isolated neutrophils were kept on ice until incubated with and without stimuli at 37°C for 30 minutes. Following the incubation, cells were washed in a large volume of cold PBS + 0.05% Na Azide + 2% autologous plasma. […] Following a 30 minute incubation at 0°C and 2 more washes, the cells were analyzed by flow cytometry on a Becton Dickinson FACStar flow cytometer (Becton Dickinson, Mountain View, CA). […]
Human neutrophils may be stimulated both in vivo and in vitro by lipopolysaccharide. […] Using the Fluorescence Activated Cell Sorter (FACS), fluorescence intensity of freshly isolated human neutrophils was measured following stimulation with increasing doses of 0111:B4 LPS (data not shown). […]

Human Monocytes [1] = assay: LPS-induced TNF production by adherent peripheral blood mononuclear cells, ELISA; format: cell-based
Experimental: Human peripheral blood mononuclear cells were isolated on Ficoll-Paque (Pharmacia) gradients, washed 2X in pyrogen-free HBSS (Hazelton), and resuspended at 5 X 10^6/ml in RPMI (Gibco) media without serum. Two hundred µl of this cell suspension was incubated in each well of flat-bottom 96-well tissue culture dishes (Costar) for 2 hours at 37°C. Nonadherent cells were removed by washing 2X with RPMI + 10% autologous heat inactivated serum. Adherent mononuclear cells were stimulated with E. coli 0111:B4 LPS which had been preincubated for 30 minutes at 37°C with buffer, BPI Protein or polymyxin B (Gibco; 7900 U/ml). Supernatants were harvested four hours after LPS mixtures were added. Secretion of TNFα was quantitated by ELISA (Endogen) (results at Table 9).
BPI Protein produced in soluble form at low temperature in E. coli and purified as described above in purification process A was tested for inhibition of endotoxin-mediated TNF induction by human adherent mononuclear cells. Blood collected in acid citrate dextrose containing vacutainer tubes (Becton Dickinson, Rutherford, NJ) was diluted in Hank's balanced salt solution (HBSS) minus Ca^+2 and Mg^+2. Mononuclear cells were separated using Ficol-Paque (Pharmacia Inc., Piscataway, N.J.), collected and washed three times in HBSS, and the proportion of monocytes was estimated by microscopic examination. Cells were brought up to an appropriate volume of RPMI 1640 with glutamine and antibiotics and without serum to give approximately 1 x 10^6 monocytes/ml. Cells were plated into 96 11 flat bottom tissue culture plates (Costar, Cambridge, MA), 200 µl/well, and incubated for two hours at 37°C in a humidified incubator with […]. Cells were then washed three times in warm RPMI 1640 without serum. After the last wash was aspirated, 200 µl/well RPMI 1640 with 10% autologous heat-inactivated serum was added. To each well was then added the 22µl of 10X solution of E. coli endotoxin preincubated in buffer, polymyxin B, or BPI Protein. Cells were incubated with the endotoxin mixture for four hours at 37°C, then the supernatants were collected and assayed for TNFα antigen by ELISA (Endogen, Inc., Boston, MA) (Figure 12) .

mice = assay: Intranasal LPS challenge, TNFα in broncheoalveolar lavage fluid; format: in vivo; design: TNFα level in Broncheoalveolar Lavage Fluid, individual mouse: unit not given here; settings: Polymyxin B 1.0µg (782 pmol) intranasal 20 minutes before LPS, BAL 1 hour after challenge
Experimental: Normal anesthetized mice were challenged by the intranasal route with 10 ng/ml E. coli 0111:B4 LPS (results in Table 10). Twenty minutes before challenge, anesthetized mice were treated by the intranasal route with 50µl saline, BPI Protein or polymyxin B solution. At one hour after LPS challenge, mice were re-anesthetized, and 0.7 ml of saline containing 1% human serum albumin was added to the lungs via the trachea. The lungs were gently kneaded. A 0.5 ml volume broncheoalveolar lavage (BAL) fluid was aspirated, cells were pelleted by centrifugation, and the BAL sample was stored at -70°C. The TNFα level in the BAL fluid was determined by measuring cytotoxicity towards WEHI clone 13 mouse fibrosarcoma cells and is summarized in Table 10. Human rTNFα (Chiron) was used as the standard.

[2] = format: binding; settings: data not shown
Experimental: BPI Protein binds to LPS (data not shown). In these experiments, 4 µg of LPS/well was immobilized on 96 well plastic plates, then incubated with varying concentrations of BPI Protein, and developed with anti-BPI Protein polyclonal antisera. […]

Human Monocytes [3] = assay: LPS-induced TNF production by adherent peripheral blood mononuclear cells, ELISA; format: cell-based; settings: Table 8; 1000 ng/ml Polymyxin B; 0.1 % w/v killed S. aureus

For Polymyxin B, the “calculated amount of PMB required to inhibit 10 ng/ml of smooth LPS” value (human neutrophils) was “approximately 0.67 nM”, the “TNF Produced in Response to LPS Preincubated with substance” value (Human Monocytes [1]; Table 5, 100 ng/ml, LPS 0 ng/ml) was 0 pg/mL and the “TNF Produced in Response to LPS Preincubated with substance” value (Human Monocytes [1]; Table 5, 100 ng/ml, LPS 0.1 ng/ml) was 0 pg/mL. The “TNF Produced in Response to LPS Preincubated with substance” value (Human Monocytes [1]; Table 5, 100 ng/ml, LPS 1 ng/ml) was 96 pg/mL, the “TNF Produced in Response to LPS Preincubated with substance” value (Human Monocytes [1]; Table 5, 100 ng/ml, LPS 10 ng/ml) was 2154 pg/mL and the “TNF Produced in Response to LPS Preincubated with substance” value (Human Monocytes [1]; Table 5, 500 ng/ml, LPS 0 ng/ml) was 0 pg/mL. The “TNF Produced in Response to LPS Preincubated with substance” value (Human Monocytes [1]; Table 5, 500 ng/ml, LPS 0.1 ng/ml) was 0 pg/mL, the “TNF Produced in Response to LPS Preincubated with substance” value (Human Monocytes [1]; Table 5, 500 ng/ml, LPS 1 ng/ml) was 0 pg/mL and the “TNF Produced in Response to LPS Preincubated with substance” value (Human Monocytes [1]; Table 5, 500 ng/ml, LPS 10 ng/ml) was 1490 pg/mL. For the same substance, the “TNF Produced in Response to LPS Preincubated with substance” value (Human Monocytes [1]; Table 7, 100 ng/ml PMB, LPS 0 ng/ml) was 0 pg/mL, the “TNF Produced in Response to LPS Preincubated with substance” value (Human Monocytes [1]; Table 7, 100 ng/ml PMB, LPS 0.1 ng/ml) was 79 pg/mL and the “TNF Produced in Response to LPS Preincubated with substance” value (Human Monocytes [1]; Table 7, 100 ng/ml PMB, LPS 1 ng/ml) was 1207 pg/mL. For the same substance, the “TNF Produced in Response to LPS Preincubated with substance” value (Human Monocytes [1]; Table 7, 100 ng/ml PMB, LPS 10 ng/ml) was 1270 pg/mL, the “TNF Produced in Response to S. aureus Preincubated with substance” value (Human Monocytes [1]; Table 8, 100 ng/ml Polymyxin B, 0.1 % w/v killed S. aureus) was 1541 ± 397 pg/mL and the “TNF Produced in Response to LPS Preincubated with substance” value (Human Monocytes [1]; Table 8, 100 ng/ml Polymyxin B, LPS 10 (unit not given)) was 601 ± 257 pg/mL. The “TNF Produced in Response to LPS Preincubated with substance” value (Human Monocytes [1]; Table 8, 100 ng/ml Polymyxin B, LPS 100 (unit not given)) was 1140 ± 73 pg/mL, the “TNF Produced in Response to LPS Preincubated with substance” value (Human Monocytes [1]; Table 8, 100 ng/ml Polymyxin B, LPS 1000 (unit not given)) was 1016 ± 20 pg/mL and the “TNF Produced in Response to LPS Preincubated with substance” value (Human Monocytes [1]; Table 8, 1000 ng/ml Polymyxin B, LPS 10 (unit not given)) was 333 ± 18 pg/mL. For the same substance, the “TNF Produced in Response to LPS Preincubated with substance” value (Human Monocytes [1]; Table 8, 1000 ng/ml Polymyxin B, LPS 100 (unit not given)) was 769 ± 101 pg/mL, the “TNF Produced in Response to LPS Preincubated with substance” value (Human Monocytes [1]; Table 8, 1000 ng/ml Polymyxin B, LPS 1000 (unit not given)) was 844 ± 144 pg/mL and the “TNFα level in Broncheoalveolar Lavage Fluid, Mean ± SD” value (mice) was 253 ± 251. The “TNFα level in Broncheoalveolar Lavage Fluid, individual mouse” value (mice; mice 1-5) was 74 and 50 and 132 and 370 and 640, the “inhibition of BPI Protein binding to LPS” value [2] was “inhibited” and the “TNF Produced in Response to S. aureus Preincubated with substance” value (Human Monocytes [3]) was 1685 ± 121 pg/mL.

Reference: patent EP0726944B1, “GL[…] NON-GLYCOSYLATED BACTERICIDAL/PE[…], AND METHODS FOR PRODUCING SAME” (INCYTE PHARMACEUTICALS, INC., priority 1993, dated 1995)
